US20210330611A1, “THERAPY FOR NEUROLOGICAL DISEASES/DISORDERS” (priority 2020, published 2021)
Structures can show the parent of a compound that is named as a salt. Where two headings read alike, the source gives them in different places.

Experiments:
[1] = tested on: fibrin-induced microglia activation; experiment: Image-based assay of fibrin-induced microglia activation (HTS and dose response); format: cell-based, rat; conditions: for inhibition at 10 µM: Rattus norvegicus, Microglia, read-out: Fibrin % inhibition
[2] = tested on: LPS-induced microglia activation; experiment: Image-based assay of LPS-induced microglia activation (HTS and dose response); format: cell-based, rat; conditions: for inhibition at 10 µM: Rattus norvegicus, Microglia, read-out: LPS % inhibition
[3] = tested on: fibrin- and LPS-induced microglia activation; experiment: cells; format: cell-based, rat
[4] = tested on: primary rat microglia;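 on Fibrin % cell toxicity: share of dead cells sized under 150 µm2 at 10 µM in fibrin-stimulated microglia HTS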
[5] = tested on: primary rat microglia; remark: listed apart in the source;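 on Fibrin % cell toxicity: share of dead cells sized under 150 µm2 at 10 µM in fibrin-stimulated microglia HTS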
[6] = primary microglia HTS, fibrin stimulation, increased cell size (>800 μm^2) as marker of activation
[7] = 48 h, primary microglia HTS, LPS stimulation, increased cell size (>800 μm^2) as marker of activation
[8] = quadrant by fibrin and LPS inhibition in HTS of 1907 compounds
[9] = primary microglia HTS, LPS stimulation, increased cell size (>800 μm^2) as marker of activation

SMILES	inhibition at 10 µM [1, 6]	inhibition at 10 µM [2, 7]	Quadrant (FIG. 5b) [3, 8]	Fibrin % cell toxicity ([4]; rat)	LPS % cell toxicity ([5]; rat)	Quadrant (FIG. 5b) [3]	inhibition at 10 µM ([2]; 48 h)	other results
Cc1[nH]c(=O)c(C#N)cc1-c1ccncc1 [Milrinone]	4%	23%	Q4	0%	0%			
CO[C@@]12[C@H](COC(N)=O)C3=C(C(=O)C(C)=C(N)C3=O)N1C[C@@H]1N[C@@H]12 [Mitomycin C, Mitomycin]						Q2		Fibrin % inhibition ([1]; 10 µM): 112%; LPS % inhibition ([2]; 10 µM): 110%; Fibrin % cell toxicity [4]: 74%; LPS % cell toxicity [5]: 49%
Clc1ccc(C(c2ccccc2Cl)C(Cl)Cl)cc1 (stereo not shown) [Mitotane]	-19%	-1%	Q4	0%	0%			
CC(C)(O)c1ccccc1CC[C@@H](SCC1(CC(=O)O)CC1)c1cccc(/C=C/c2ccc3ccc(Cl)cc3n2)c1 [Montelukast Sodium]				1%	0%	Q4		Fibrin % inhibition [1]: 21%; LPS % inhibition [2]: 16%
CC(C)(O)c1ccccc1CC[C@@H](SCC1(CC(=O)O)CC1)c1cccc(/C=C/c2ccc3ccc(Cl)cc3n2)c1 [Montelukast]				1%	0%	Q4	12%	Fibrin % inhibition [1]: −5%
COc1c(N2C[C@@H]3CCCN[C@@H]3C2)c(F)cc2c(=O)c(C(=O)O)cn(C3CC3)c12 [Moxifloxacin Hydrochloride]	7%	14%	Q4	1%	0%			
CC1CCc2c(N3CCC(O)CC3)c(F)cc3c(=O)c(C(=O)O)cn1c23 (stereo not shown) [Nadifloxacin]	-14%	10%	Q4	1%	0%			
CN(C/C=C/c1ccccc1)Cc1cccc2ccccc12 [Naftifine]				0%	0%	Q4	3%	inhibition at 10 µM [1]: -12%
Oc1ccc2c3c1O[C@H]1[C@@H](O)CC[C@@]4(O)[C@@H](C2)N(CC2CCC2)CC[C@]314 [Nalbuphine Hydrochloride]				1%	0%	Q4		Fibrin % inhibition [1]: −11%; LPS % inhibition [2]: 15%
Oc1ccc2c3c1O[C@H]1[C@@H](O)CC[C@@]4(O)[C@@H](C2)N(CC2CCC2)CC[C@]314 [Nalbuphine]				1%	0%	Q4	16%	Fibrin % inhibition [1]: −8%
C=CCN1CC[C@]23c4c5ccc(O)c4O[C@H]2C(=O)CC[C@@]3(O)[C@H]1C5 [Naloxone Hydrochloride]				0%	0%	Q4		Fibrin % inhibition [1]: −16%; LPS % inhibition [2]: 11%
C=CCN1CC[C@]23c4c5ccc(O)c4O[C@H]2C(=O)CC[C@@]3(O)[C@H]1C5 [Naloxone]				1%	1%	Q4	21%	Fibrin % inhibition [1]: −41%
OC(CNCC(O)C1CCc2cc(F)ccc2O1)C1CCc2cc(F)ccc2O1 (stereo not shown) [Nebivolol]	-10%	6%	Q4	1%	0%			
Cc1c(O)cccc1C(=O)N[C@@H](CSc1ccccc1)[C@H](O)CN1C[C@H]2CCCC[C@H]2C[C@H]1C(=O)NC(C)(C)C [Nelfinavir]	16%	13%	Q4	1%	0%			
NC[C@@H]1O[C@H](O[C@H]2[C@@H](O)[C@H](O[C@@H]3[C@@H](O)[C@H](N)C[C@H](N)[C@H]3O[C@H]3O[C@H](CN)[C@@H](O)[C@H](O)[C@H]3N)O[C@@H]2CO)[C@H](N)[C@@H](O)[C@@H]1O.O=S(=O)(O)O [Neomycin Sulfate]			Q4					Fibrin % inhibition [1, 6]: 15%; LPS % inhibition [2, 9]: 18%; Fibrin % cell toxicity [4]: 0%; LPS % cell toxicity [5]: 0%
CO[C@]12C[C@@H](COC(=O)c3cncc(Br)c3)CN(C)[C@@H]1Cc1cn(C)c3cccc2c13 [Nicergoline]	6%	7%	Q4	1%	0%			
NC(=O)c1cccnc1 [Nicotinamide]				1%	0%	Q4	16%	inhibition at 10 µM [1]: -8%
CN1CCC[C@H]1c1cccnc1 [Nicotine]				1%	1%	Q4	21%	inhibition at 10 µM [1]: 2%

SMILES	inhibition at 10 µM [1, 6]	inhibition at 10 µM [2, 7]	Quadrant (FIG. 5b) [3, 8]	Fibrin % cell toxicity ([4]; rat)	LPS % cell toxicity ([5]; rat)	Quadrant (FIG. 5b) [3]	inhibition at 10 µM ([2]; 48 h)	other results
Cc1cn(-c2cc(NC(=O)c3ccc(C)c(Nc4nccc(-c5cccnc5)n4)c3)cc(C(F)(F)F)c2)cn1 [Nilotinib]	-35%	17%	Q4	1%	1%			
COC(=O)C1=C(C)NC(C)=C(C(=O)OCC(C)C)C1c1ccccc1[N+](=O)[O-] (stereo not shown) [Nisoldipine]	6%	25%	Q4	1%	1%			
O=C1CN=C(c2ccccc2)c2cc([N+](=O)[O-])ccc2N1 [Nitrazepam]	-1%	-4%	Q4	1%	0%			
O=C1CN(/N=C/c2ccc([N+](=O)[O-])o2)C(=O)N1 [Nitrofurantoin]				1%	0%	Q4	11%	inhibition at 10 µM [1]: -3%
CNC(=C[N+](=O)[O-])NCCSCc1csc(CN(C)C)n1 [Nizatidine]	-18%	14%	Q4	0%	0%			
CCn1cc(C(=O)O)c(=O)c2cc(F)c(N3CCNCC3)cc21 [Norfloxacin]	0%	9%	Q4	1%	0%			
Cc1cc2c(s1)Nc1ccccc1N=C2N1CCN(C)CC1 [Olanzapine]				1%	0%	Q4	9%	inhibition at 10 µM [1]: 6%
Cc1c(-c2cnccn2)ssc1=S [Oltipraz]				1%	0%	Q4	-1%	inhibition at 10 µM [1]: -2%
CC(C)NCC(O)c1cc(O)cc(O)c1 (stereo not shown) [Orciprenaline]	15%	25%	Q4	0%	0%			
O=C(O)c1cc(=O)[nH]c(=O)[nH]1 [Orotic Acid]	-5%	16%	Q4	0%	0%			
CCn1cc(C(=O)O)c(=O)c2cc3c(cc21)OCO3 [Oxolinic Acid]	7%	13%	Q4	0%	1%			
CCN(CC)CC#CCOC(=O)C(O)(c1ccccc1)C1CCCCC1 (stereo not shown) [Oxybutynin]				0%	1%	Q4	0%	inhibition at 10 µM [1]: -9%
CCCCC1C(=O)N(c2ccccc2)N(c2ccc(O)cc2)C1=O (stereo not shown) [Oxyphenbutazone]			Q1					Fibrin % inhibition [1, 6]: 2%; LPS % inhibition [2, 9]: 114%; Fibrin % cell toxicity [4]: 1%; LPS % cell toxicity [5]: 97%
Oc1cccc2cccnc12 [Oxyquinoline]				80%	57%	Q2		inhibition at 10 µM [1]: 117%; inhibition at 10 µM [2]: 116%
CN(C)[C@@H]1C(O)=C(C(N)=O)C(=O)[C@@]2(O)C(O)=C3C(=O)c4c(O)cccc4[C@@](C)(O)[C@H]3[C@H](O)[C@@H]12 [Oxytetracycline]	0%	10%	Q4	1%	0%			
Cc1nc2n(c(=O)c1CCN1CCC(c3noc4cc(F)ccc34)CC1)CCCC2O (stereo not shown) [Paliperidone]	-26%	9%	Q4	1%	0%			
Oc1ccc(Cl)cc1 [Parachlorophenol]				0%	0%	Q4	15%	inhibition at 10 µM [1]: 21%
